{
  "source": "paper PMC8548882",
  "about": "“The Trp-rich Antimicrobial Amphiphiles With Intramolecular Aromatic Interactions for the Treatment of Bacterial Infection” (Frontiers in Microbiology, 2021)",
  "system": "S. aureus ATCC 29213",
  "experiment": "Transmission electron microscope",
  "format": "cell-based, Staphylococcus aureus ATCC 29213",
  "details": "MIC (2μM)",
  "text": "The sample for the test of the Transmission Electron Microscope (TEM) was to follow the same procedure as SEM. After the overnight pre-fixation with 2.5% glutaraldehyde, the bacteria was then post-fixed with 2% osmium tetroxide (sealed ampule, Shanghai, China). Afterward, the samples were dehydrated with ethanol at a series of concentrations (50, 70, 90, and 100%) and substituted the 100% ethanol with 50% ethanol+50% acetone, 100% acetone, 50% acetone+50% epoxy resin, and 100% epoxy resin successively. Finally, the samples were sectioned and stained for observation.",
  "note": "Ends that are not written are not given here.",
  "data": [
    {"substance": "VKKWVKKWVKKWVKKW-NH2 [VW5]", "values": [
      {"measurement": "ultrastructure (TEM)", "value": "diffused around the shrunken cells"}
    ]}
  ]
}
